According to PMC11329505 (Communications Chemistry, 2024):

Key:
[1] = target: T1, AGAL5 (Blautia pseudococcoides, UniProt A0A1C7IHX3); assay: pNP-αGal colorimetric assay with additive; type: biochemical; settings: 5 mM maltose; pNP-αGal substrate
T1 sequence (A0A1C7IHX3 1-763): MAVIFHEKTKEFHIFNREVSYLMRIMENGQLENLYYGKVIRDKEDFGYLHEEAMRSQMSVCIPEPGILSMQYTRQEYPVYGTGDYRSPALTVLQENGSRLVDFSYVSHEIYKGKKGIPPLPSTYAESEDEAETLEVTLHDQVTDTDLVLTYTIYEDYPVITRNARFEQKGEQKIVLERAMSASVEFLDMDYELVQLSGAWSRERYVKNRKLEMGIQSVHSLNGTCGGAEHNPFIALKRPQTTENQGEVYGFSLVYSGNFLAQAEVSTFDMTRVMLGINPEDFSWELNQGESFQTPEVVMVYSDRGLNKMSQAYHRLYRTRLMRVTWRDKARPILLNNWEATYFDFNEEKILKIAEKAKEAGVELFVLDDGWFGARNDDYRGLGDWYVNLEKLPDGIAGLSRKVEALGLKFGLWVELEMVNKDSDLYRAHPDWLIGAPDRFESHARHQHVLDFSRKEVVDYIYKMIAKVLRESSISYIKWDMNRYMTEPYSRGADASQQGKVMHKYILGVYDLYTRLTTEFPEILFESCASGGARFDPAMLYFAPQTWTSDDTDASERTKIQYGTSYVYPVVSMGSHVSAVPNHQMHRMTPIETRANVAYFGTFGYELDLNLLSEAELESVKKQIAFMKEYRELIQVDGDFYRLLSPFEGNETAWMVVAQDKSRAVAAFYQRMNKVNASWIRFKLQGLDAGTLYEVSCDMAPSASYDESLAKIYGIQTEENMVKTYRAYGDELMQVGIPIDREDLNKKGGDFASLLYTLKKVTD

[2] = target: T2, AGAL3 (Turicibacter bilis, UniProt A0A9Q9CI38); assay: pNP-αGal colorimetric assay with additive; type: biochemical; settings: 5 mM maltose; pNP-αGal substrate
T2 sequence (A0A9Q9CI38 1-743): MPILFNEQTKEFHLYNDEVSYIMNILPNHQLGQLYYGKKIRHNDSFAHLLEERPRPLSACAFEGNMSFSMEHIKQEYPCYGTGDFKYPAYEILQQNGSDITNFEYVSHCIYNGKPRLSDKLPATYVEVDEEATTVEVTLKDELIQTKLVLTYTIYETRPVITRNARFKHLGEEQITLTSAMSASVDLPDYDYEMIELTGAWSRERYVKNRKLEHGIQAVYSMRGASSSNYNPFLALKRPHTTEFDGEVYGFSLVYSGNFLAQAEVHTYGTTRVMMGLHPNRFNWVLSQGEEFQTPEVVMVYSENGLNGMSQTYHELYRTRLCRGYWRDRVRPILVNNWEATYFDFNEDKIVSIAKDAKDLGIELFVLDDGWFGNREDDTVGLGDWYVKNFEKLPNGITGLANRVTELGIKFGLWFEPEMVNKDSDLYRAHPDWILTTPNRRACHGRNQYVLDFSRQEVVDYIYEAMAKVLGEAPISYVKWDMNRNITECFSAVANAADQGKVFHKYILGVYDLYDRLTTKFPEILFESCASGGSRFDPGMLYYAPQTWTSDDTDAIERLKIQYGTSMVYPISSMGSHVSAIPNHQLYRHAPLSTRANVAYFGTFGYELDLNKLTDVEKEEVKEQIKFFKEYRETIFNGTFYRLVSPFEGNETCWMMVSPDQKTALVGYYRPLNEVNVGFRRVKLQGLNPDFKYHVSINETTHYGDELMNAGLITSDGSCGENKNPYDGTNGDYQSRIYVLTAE

Question: For `OC[C@H]1O[C@H](O[C@H]2[C@H](O)[C@@H](O)C(O)O[C@@H]2CO)[C@H](O)[C@@H](O)[C@@H]1O` (some centres unmarked) [maltose], which “inhibition at 5 mM” value [1] is on record?
Answer: maltose had an inhibitory effect on AGAL3 and AGAL5

Question: What about the “inhibition at 5 mM” value [2] of the same molecule?
Answer: maltose had an inhibitory effect on AGAL3 and AGAL5
